Data from PubChem BioAssay (NCI).
Values joined by “and” are separate entries in the source; they are usually repeats but may differ in a detail not shown here. Identical values can stand only once.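 1) Cells in 96-well plates. 2) Compound, 48 h, 5 concentrations. 3) Linear interpolation between surrounding doses. 4) Unreached endpoint = highest concentration. GI50 is the concentration that inhibits growth by half. The concentration for full growth arrest is given as TGI.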

Tests used:
Assay in all cases: NCI anticancer screen, dose series, 48 h
MDA-MB-435 = system: MDA-MB-435
K-562 leukemia = system: K-562 leukemia
SF-295 CNS = system: SF-295 CNS
COLO 205 colon = system: COLO 205 colon
SK-MEL-2 melanoma = system: SK-MEL-2 melanoma
UACC-257 melanoma = system: UACC-257 melanoma
HL-60(TB) leukemia = system: HL-60(TB) leukemia
M14 melanoma = system: M14 melanoma
SNB-75 CNS = system: SNB-75 CNS
SK-MEL-28 melanoma = system: SK-MEL-28 melanoma

SMILES | GI50 (MDA-MB-435) [µM] | TGI (MDA-MB-435) [µM] | GI50 (K-562 leukemia) [µM] | TGI (K-562 leukemia) | GI50 (SF-295 CNS) [µM] | TGI (SF-295 CNS) | GI50 (COLO 205 colon) [µM] | TGI (COLO 205 colon) | GI50 (SK-MEL-2 melanoma) [µM] | TGI (SK-MEL-2 melanoma) | GI50 (UACC-257 melanoma) [µM] | TGI (UACC-257 melanoma) [µM] | GI50 (HL-60(TB) leukemia) [µM] | TGI (HL-60(TB) leukemia) [µM] | GI50 (M14 melanoma) [µM] | TGI (M14 melanoma) [µM] | GI50 (SNB-75 CNS) [µM] | TGI (SNB-75 CNS) | GI50 (SK-MEL-28 melanoma) [µM] | TGI (SK-MEL-28 melanoma)
CCOC(=O)/C(=C/c1ccc([N+](=O)[O-])cc1)C(=O)c1ccccc1 | 2.23 | 5.37 | 3.5 | 28.7 µM | 2.78 | 8.5 µM | 1.95 | 3.89 µM | 2.24 | 5.15 µM | 3.12 | 7.61 | 2.34 | 5.87 | 2.11 | 5.01 | 1.72 | 4.22 µM | 2.1 | 4.73 µM
CC(=O)O[C@H]1C(=O)O[C@@H]2C[C@H]3C(C)=CC(=O)[C@@H](O)[C@]3(C)[C@H]3[C@@]4(O)OC[C@]32[C@@H]1[C@@H](C)[C@H]4O |  | 0.233 | 0.0188 | 0.125 µM and 0.128 µM | 0.034 | 0.291 µM and 0.206 µM | 0.136 | 0.365 µM and 0.686 µM | 0.0283 | 0.197 µM and 0.259 µM | 0.0322 | 0.137 |  | 0.4 |  | 0.0838 | < 0.017 | 0.104 µM and 0.154 µM | < 0.0104 | 0.0577 µM and 0.142 µM
C=C1C(=O)O[C@H]2[C@H]1CC/C(Cn1cc(Cn3ccc4ccccc43)nn1)=C\CC[C@@]1(C)O[C@@H]21 | 1.7 | 3.39 | 1.77 | 5.65 µM | 7.87 | 21.3 µM | 1.71 | 3.41 µM | 1.73 | 3.96 µM | 2.04 | 4.41 | 1.2 | 3.79 | 1.25 | 2.79 | 2.61 | 15.6 µM | 1.67 | 3.25 µM
CNNCc1ccc(C(=O)NC(C)C)cc1 |  | > 500 | > 500 | > 500 µM |  | > 500 µM |  | > 500 µM |  | > 500 µM | > 500 | > 500 |  | > 500 |  | > 500 | > 500 | > 500 µM |  | > 500 µM
COC(=O)C(C)NP(=O)(OCc1ccc(Cn2cnc3c(=O)[nH]c(N)nc32)cc1)Oc1ccccc1 (stereo not drawn) | > 100 | > 100 | > 100 | > 100 µM | > 100 | > 100 µM | > 100 | > 100 µM | > 100 | > 100 µM | > 100 | > 100 | > 100 | > 100 | > 100 | > 100 | > 100 | > 100 µM | > 100 | > 100 µM
O=C1/C(=C\C(Cl)=C/c2ccc([N+](=O)[O-])cc2)SC(=S)N1CCc1ccc(O)cc1 | 0.552 | 1.95 | 0.285 | > 100 µM | 0.501 | 1.06 µM | 0.882 | 3.64 µM | 2.01 | 4.37 µM | 1.65 | 4.28 | 0.341 | 6.63 | 0.494 | 1.84 | 1.08 | 2.35 µM | 0.626 | 1.96 µM
O=C1C(=O)c2ccccc2-c2ccccc21 | 0.198 | 0.416 | 1.01 | 4.02 µM | 1.76 | 3.23 µM | 2.02 | 4.28 µM | 2.02 | 4.79 µM | 1.52 | 3.07 | 1.56 | 4.11 | 1.76 | 3.29 | 1.51 | 2.9 µM | 1.77 | 3.24 µM
CCOC(=O)c1c(C)nc2ccc(Cl)cc2c1-c1ccccc1 | 23.9 | 68.4 | 20.1 | > 100 µM | 19.4 | 46.8 µM | 17.9 | 53.4 µM | 15 | 34.1 µM | 25.5 | 83.1 | 14.2 | 41 | 18.7 | 52.3 | 21.8 | 64.9 µM | 19.6 | 52.4 µM
O=c1cc(-c2ccc(Cl)cc2)[nH]c2ncccc12 | 5.96 | 22.4 |  | 76.1 µM | 40.7 | > 100 µM |  | 83 µM |  | > 100 µM |  | > 100 | 16.6 | 41.6 |  | > 100 |  | > 100 µM |  | > 100 µM
COc1ccc(-c2cc(=O)c3c(OC)c(OC)c(OC)c(OC)c3o2)cc1OC |  | > 100 |  | > 100 µM |  | > 100 µM |  | > 100 µM |  | > 100 µM |  | > 100 |  | 59 |  | > 100 |  | > 100 µM |  | > 100 µM
